Measured values taken from PMC11356571, “The Comparative Metabolism of a Novel Hepatocellular Carcinoma Therapeutic Agent, 2,3-Diamino-N-(4-(benzo[d]thiazol-2-yl)phenyl)propanamide, in Human and Animal Hepatocytes” (Metabolites, 2024).

How the values were obtained:
Assay type in all cases: in vitro ADME
CYP2B6 = target: T1, CYP2B6 (Homo sapiens, UniProt P20813); test: Incubation with human cDNA-expressed CYP2B6; settings: CYP2B6, 30 min at 37 °C with NADPH; ETN101 10 μM or M1 1 μM
T1 construct: purchased Cypex Ltd. (Dundee, UK)
T1 sequence (P20813 1-491): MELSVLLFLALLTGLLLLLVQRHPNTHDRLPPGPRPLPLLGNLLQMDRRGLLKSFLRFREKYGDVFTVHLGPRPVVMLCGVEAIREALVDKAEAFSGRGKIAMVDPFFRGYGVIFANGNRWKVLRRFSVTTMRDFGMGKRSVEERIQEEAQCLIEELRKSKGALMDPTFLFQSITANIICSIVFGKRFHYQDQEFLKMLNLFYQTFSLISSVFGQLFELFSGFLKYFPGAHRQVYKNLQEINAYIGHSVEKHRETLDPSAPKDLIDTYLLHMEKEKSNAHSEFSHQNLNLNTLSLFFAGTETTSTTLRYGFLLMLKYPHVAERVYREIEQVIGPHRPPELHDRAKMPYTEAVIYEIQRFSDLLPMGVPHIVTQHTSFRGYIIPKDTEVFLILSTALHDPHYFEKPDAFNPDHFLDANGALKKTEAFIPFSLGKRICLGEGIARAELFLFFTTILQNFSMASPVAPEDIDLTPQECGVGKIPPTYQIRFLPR
Experimental: ETN101 or M1 was incubated with nine human cDNA-expressed CYP enzymes (1A2, 2A6, 2B6, 2C8, 2C9, 2C19, 2D6, 2E1, and 3A4) to identify the CYPs involved in the metabolism of ETN101. Based on the preliminary study, the incubation conditions were determined as follows: Briefly, reaction mixtures of 50 μL containing ETN101 (final concentration: 10 μM) or M1 (final concentration: 1 μM), and CYPs (final amount: 5 pmol for CYP1A2, 2A6, 2C8, 2C9, 2C19, 2D6, and 3A4; 10 pmol for CYP2B6 and 2E1) were prepared in 0.1 M potassium phosphate buffer. The reaction was initiated by adding 50 μL of NADPH- regenerating system; the mixtures were incubated for 0 min or 30 min at 37 °C in triplicate. Reactions were terminated by the addition of 100 μL of ice-cold acetonitrile containing the IS (camptothecin, 200 ng/mL). Samples were centrifuged at 13,000 rpm for 5 min at 4 °C. An aliquot of 2 μL supernatant was injected in LC–MS/MS system.
(§1) For enzyme characterization, an Agilent 6460 triple quadrupole mass spectrometer coupled with a 1260 HPLC system (Agilent Technologies, Santa Clara, CA, USA) and a Kinetex Halo® C18 column (2.7 μm, 2.1 × 50 mm, Advanced Material Technology, Wilmington, DE, USA) were used for chromatographic separation. […] ETN101, M1, and M2 were detected via MRM using ESI in the positive mode. […]

CYP2C9 = target: T2, CYP2C9 (Homo sapiens, UniProt P11712); test: Incubation with human cDNA-expressed CYP2C9; settings: CYP2C9, 30 min at 37 °C with NADPH; ETN101 10 μM or M1 1 μM; diclofenac positive control
T2 construct: purchased Corning Life Sciences (Woburn, MA, USA)
Experimental: The mobile phases comprised 0.1% (v/v) formic acid in water (mobile phase A) and 0.1% formic acid (v/v) in acetonitrile (mobile phase B). […] The column and auto-sampler were maintained at 40 °C and 4 °C, respectively. ETN101, M1, and M2 were detected via MRM using ESI in the positive mode. […] Mass Hunter software (Agilent Technologies) was used to control the LC-MS/MS instrument and for data processing.

CES2 = target: T3, CES2 (Homo sapiens, UniProt O00748); test: Incubation with human recombinant CES2; settings: CES2, 60 min at 37 °C; ETN101 10 μM or M1 1 μM
T3 construct: purchased Corning Life Sciences (Woburn, MA, USA)
T3 sequence (O00748 27-559): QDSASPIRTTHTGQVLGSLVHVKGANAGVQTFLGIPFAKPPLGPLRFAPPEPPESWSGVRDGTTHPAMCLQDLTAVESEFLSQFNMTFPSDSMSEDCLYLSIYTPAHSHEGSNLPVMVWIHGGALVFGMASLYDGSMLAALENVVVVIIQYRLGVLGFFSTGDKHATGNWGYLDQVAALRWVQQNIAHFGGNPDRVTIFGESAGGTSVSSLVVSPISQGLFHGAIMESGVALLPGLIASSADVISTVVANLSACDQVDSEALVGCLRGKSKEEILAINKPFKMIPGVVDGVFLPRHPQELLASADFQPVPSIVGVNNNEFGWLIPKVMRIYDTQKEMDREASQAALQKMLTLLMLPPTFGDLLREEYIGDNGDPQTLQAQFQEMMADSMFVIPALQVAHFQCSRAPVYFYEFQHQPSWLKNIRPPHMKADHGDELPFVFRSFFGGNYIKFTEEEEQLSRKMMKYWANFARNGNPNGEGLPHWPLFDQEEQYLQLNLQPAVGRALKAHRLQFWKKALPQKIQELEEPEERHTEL
Experimental: To screen for CES enzymes responsible for the hydrolysis of ETN101 or M1, 50 μL of reaction mixtures containing human cDNA-expressed CES enzymes (CES1b, CES1c, and CES2) at the concentration of 1 mg/mL, 10 μM ETN101, or 1 μM M1 in 0.1 M potassium phosphate buffer were incubated at 37 °C for 0 min or 60 min in triplicate. The reactions were quenched by adding 50 μL of ice-cold acetonitrile containing the internal standard (camptothecin, 10 μg/mL). Following centrifugation at 13,000 rpm for 5 min, a 2 μL aliquot of the supernatant was injected into the LC-MS/MS system. The reliability of the analysis was confirmed by incorporating three different levels of quality control samples at the beginning and end of each analytical batch.
as §1, with “separation. The mobile phases comprised 0.1% (v/v) formic acid in water (mobile phase A) and 0.1% formic acid (v/v) in acetonitrile (mobile phase B).” for “separation.”

T2 sequence (P11712 whole entry): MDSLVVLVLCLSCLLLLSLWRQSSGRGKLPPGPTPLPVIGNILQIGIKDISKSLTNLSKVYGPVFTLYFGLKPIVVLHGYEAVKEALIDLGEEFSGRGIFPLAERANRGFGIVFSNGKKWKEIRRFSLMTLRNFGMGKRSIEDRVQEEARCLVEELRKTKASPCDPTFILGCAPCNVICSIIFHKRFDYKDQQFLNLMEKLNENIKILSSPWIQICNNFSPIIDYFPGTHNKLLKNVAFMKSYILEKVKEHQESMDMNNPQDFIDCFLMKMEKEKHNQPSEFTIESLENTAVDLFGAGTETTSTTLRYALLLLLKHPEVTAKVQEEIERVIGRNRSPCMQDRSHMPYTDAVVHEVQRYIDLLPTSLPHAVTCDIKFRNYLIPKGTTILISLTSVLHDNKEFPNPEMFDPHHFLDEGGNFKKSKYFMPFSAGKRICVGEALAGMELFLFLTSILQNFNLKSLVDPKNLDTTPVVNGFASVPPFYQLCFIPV

Row | SMILES | Percentage remaining (CYP2B6) [%] | Percentage remaining (CYP2C9) [%] | Percentage remaining (CES2) [%]
1 | NCC(N)C(=O)Nc1ccc(-c2nc3ccccc3s2)cc1 (stereo not drawn) [ETN101, 2,3-diamino-N-(4-(benzo[d]thiazol-2-yl)phenyl)propanamide] | 92.8 | 110.8 | 113.4
2 | Nc1ccc(-c2nc3ccccc3s2)cc1 [M1, 2-(4-aminophenyl)benzothiazole] | 109.8 | 80.1 | 91.7
